From patent US6486203B1, “Treating inflammatory diseases of the head and neck with cyclooxygenase-2 inhibitors” (Cornell Research Foundation, Inc., priority 1998, dated 2002)

Tests used:
Assay type in all cases: in vivo, human
[1] = test system: sinusitis; test: Treatment of a patient with sinusitis (Example III); details: person with sinusitis; 200 mg orally twice a day, together with amoxicillin; after taking one dose
Method: A person presents to their physician complaining of fever and headache. On physical examination, they have tenderness over their maxillary sinus. A diagnosis of sinusitis is made. The patient is treated with amoxicillin 500 mg orally every eight hours for ten days. They are also given Celebrex 200 mg orally twice a day for seven days.

[2] = test system: tonsillitis; test: Treatment of a patient with tonsillitis (Example I); details: person with tonsillitis; 200 mg orally twice a day, together with amoxicillin; after taking one dose
Method: A person has symptoms of a sore throat and fever. They are evaluated by a physician who notes inflamed tonsils and diagnoses tonsillitis. The patient is treated with amoxicillin 500 mg orally every eight hours for ten days. Additionally, they are given Celebrex (celecoxib) 200 mg orally twice a day for seven days.

[3] = test system: viral pharyngitis; test: Treatment of a patient with viral pharyngitis with lozenges (Example II); details: person with viral pharyngitis; lozenges containing 100 mg four times a day
Method: A person has symptoms of a sore throat. They are evaluated by their physician who detects an erythematous pharynx. A diagnosis of viral pharyngitis is made.

[4] = test system: periodontitis; test: Treatment of a patient with periodontitis with resveratrol lozenges (Example V); details: tobacco-smoking person with periodontitis; lozenges of 1 gram twice a day; four months later
Text: A […] tobacco-smoking […] is referred to a periodontist for bleeding gums and is diagnosed with periodontitis.

[5] = test system: sore throat; test: Treatment of sore throat with resveratrol lozenges (Example IV); details: person with sore throat; lozenges of 1 gram, four per day for two days
Text: A person has symptoms of a sore throat.

Cc1ccc(-c2cc(C(F)(F)F)nn2-c2ccc(S(N)(=O)=O)cc2)cc1 [Celebrex, 4-[5-(4-Methylphenyl)-3-(trifluoromethyl)-1H-pyrazol-1-yl]benzenesulfonamide]
improvement in sinus pain [1]: marked improvement in their sinus pain | improvement in throat pain [2]: marked improvement in their throat pain | resolution of sore throat [3]: complete resolution of their sore throat within two days

Oc1ccc(/C=C/c2cc(O)cc(O)c2)cc1 [resveratrol]
bleeding in gums [4]: markedly decreased bleeding in their gums | periodontal disease on examination [4]: improvement in periodontal disease is detected on examination | relief of throat discomfort [5]: rapid relief of their throat discomfort
